In ChEMBL document CHEMBL1154817, “Tartrolon D, a cytotoxic macrodiolide from the marine-derived actinomycete Streptomyces sp. MDG-04-17-069” (J Nat Prod, 2009):
≈ marks a conversion by molar mass, not a printed value.

Assays:
A549 = assay: Cytotoxicity against human A549 cells after 72 hrs by sulforhodamine B assay; type: functional; settings: A549, 72 h
HT-29 = assay: Cytotoxicity against human HT-29 cells after 72 hrs by sulforhodamine B assay; type: functional; settings: HT-29, 72 h
MDA-MB-231 = assay: Cytotoxicity against human MDA-MB-231 cells after 72 hrs by sulforhodamine B assay; type: functional; settings: MDA-MB-231, 72 h
L929 = assay: Cytotoxicity against mouse L929 cells; type: functional
[1] = Inhibition of hypoxia-induced HIF1 transcriptional activity

Row | SMILES | GI50 (A549) [nM] | TGI (A549) [nM] | GI50 (HT-29) [nM] | TGI (HT-29) [nM] | GI50 (MDA-MB-231) [nM] | TGI (MDA-MB-231) [nM] | MIC (L929) [µg/mL] | IC50 [1] [µg/mL] | LC50 (A549) [µM] | LC50 (concentration killing 50% of cells) (HT-29) [µM] | LC50 (50% lethal concentration) (MDA-MB-231) [µM]
1 | COc1cccc2c1C(=O)c1c(O)c3c(c(O)c1C2=O)C[C@@](O)(C(C)=O)C[C@@H]3O[C@H]1C[C@H](N)[C@H](O)[C@H](C)O1 [DAUNORUBICIN] | 80 | 170 | 70 | 330 | 20 | 120 | – | – | – | – | –
2 | C[C@@H]1C(=O)C[C@@H](O)CC/C=C/C=C\CC[C@H](C)OC(=O)C(O)[C@]2(O)O[C@@H](CC[C@H]2C)[C@H](C)C(=O)C[C@@H](O)CC/C=C/C=C\CC[C@H](C)OC(=O)C(O)[C@]2(O)O[C@H]1CC[C@H]2C (some centres not stated) [TARTROLON A] | – | – | – | – | – | – | 70 (≈ 82.4 µM) | – | – | – | –
3 | C[C@@H]1C(=O)C[C@@H](O)CC/C=C/C=C\CC[C@H](C)OC(=O)[C@@H]2O[B-]34O[C@@H](C(=O)O[C@@H](C)CC/C=C\C=C\CC[C@H](O)CC(=O)[C@@H](C)[C@@H]5CC[C@](C)(O)[C@]2(O5)O3)[C@@]2(O[C@H]1CC[C@]2(C)O)O4 [TARTROLON C] | – | – | – | – | – | – | – | 0.17 | – | – | –
4 | C[C@@H]1CC[C@H]2CC(=O)C[C@@H](O)CC/C=C/C=C\CC[C@H](C)OC(=O)C(O)[C@]3(O)O[C@@H](CC[C@H]3C)CC(=O)C[C@@H](O)CC/C=C/C=C\CC[C@H](C)OC(=O)C(O)[C@]1(O)O2 (some centres not stated) [TARTROLON D] | 160 | 1460 | 310 | 1710 | 790 | 3410 | – | – | 8.05 | 8.41 | 11
